One compound from PubChem BioAssay AID652070 (Broad Institute, 2013) can be followed below.

The assay relates to HT29 HRAS cells, caspase 3/7 luminescence, apoptosis. The experiment in a line: apoptosis induction over several timepoints – cell-based, HT29 HRAS, caspase 3/7 luminescence, multiple timepoints, dry powder, mechanism study for HRAS target identification (AID 652070). The following applies: measured here: second timepoint caspase 3/7.

Structures are written as SMILES. Inconclusive results are not listed.

Consider `O=C(NCCOCCOCCOc1ccc(N(C(=O)CCl)C(C(=O)NCCc2ccccc2)c2cccs2)cc1Cl)c1ccc(COC2C#CCCCCC2)cc1` (stereo unspecified), for which the AC40 was > 35 µM.
